Measured values taken from ChEMBL document CHEMBL5608186, “Design, synthesis and structure-activity relationships of novel non-ketolides: 9-Oxime clarithromycin featured with seven-to thirteen-atom-length diamine linkers at 3-OH” (Eur J Med Chem, 2024).
≈ marks a conversion by molar mass, not a printed value.

Legend:
Format in all cases: functional
Haemophilus influenzae [1] = assay: Antibacterial activity against Haemophilus influenzae ATCC 49247 incubated for 16 to 20 hrs by CLSI based broth microdilution method; conditions: time 16-20 hrs
Staphylococcus aureus [2] = assay: Antibacterial activity against methicillin-resistant Staphylococcus aureus PU 32 harboring i-ermA gene incubated for 16 to 20 hrs by CLSI based broth microdilution method; conditions: time 16-20 hrs
Streptococcus pneumoniae [3] = assay: Bactericidal activity against Streptococcus pneumoniae PU 09 harboring mef gene incubated for 16 to 20 hrs by CLSI based broth microdilution method; conditions: time 16-20 hrs
Streptococcus pneumoniae [4] = assay: Bactericidal activity against Streptococcus pneumoniae ATCC 49619 incubated for 16 to 20 hrs by CLSI based broth microdilution method; conditions: time 16-20 hrs
Streptococcus pneumoniae [5] = assay: Antibacterial activity against Streptococcus pneumoniae 07P390 harboring c-erm gene incubated for 16 to 20 hrs by CLSI based broth microdilution method; conditions: time 16-20 hrs
Haemophilus influenzae [6] = assay: Selectivity ratio of MBC for Haemophilus influenzae ATCC 49247 to MIC for Haemophilus influenzae ATCC 49247
Streptococcus pneumoniae [7] = assay: Antibacterial activity against Streptococcus pneumoniae ATCC 49619 incubated for 16 to 20 hrs by CLSI based broth microdilution method; conditions: time 16-20 hrs
Streptococcus pyogenes [8] = assay: Antibacterial activity against Streptococcus pyogenes 01-968 harboring i-ermB gene incubated for 16 to 20 hrs by CLSI based broth microdilution method; conditions: time 16-20 hrs
Staphylococcus aureus [9] = assay: Antibacterial activity against methicillin-resistant Staphylococcus aureus PU 20 harboring c-ermA gene incubated for 16 to 20 hrs by CLSI based broth microdilution method; conditions: time 16-20 hrs
Streptococcus pneumoniae [10] = assay: Antibacterial activity against Streptococcus pneumoniae PU 09 harboring mef gene incubated for 16 to 20 hrs by CLSI based broth microdilution method; conditions: time 16-20 hrs
Streptococcus pyogenes [11] = assay: Selectivity ratio of MBC for Streptococcus pyogenes 01-968 harboring i-ermB gene to MIC for Streptococcus pyogenes 01-968 harboring i-ermB gene
Haemophilus influenzae [12] = assay: Bactericidal activity against Haemophilus influenzae ATCC 49247 incubated for 16 to 20 hrs by CLSI based broth microdilution method; conditions: time 16-20 hrs
Streptococcus pyogenes [13] = assay: Bactericidal activity against Streptococcus pyogenes 01-968 harboring i-ermB gene incubated for 16 to 20 hrs by CLSI based broth microdilution method; conditions: time 16-20 hrs
Streptococcus pneumoniae [14] = assay: Selectivity ratio of MBC for Streptococcus pneumoniae ATCC 49619 to MIC for Streptococcus pneumoniae ATCC 49619
Streptococcus pneumoniae [15] = assay: Selectivity ratio of MBC for Streptococcus pneumoniae PU 09 harboring mef gene to MIC for Streptococcus pneumoniae PU 09 harboring mef gene
Staphylococcus aureus [16] = assay: Bactericidal activity against methicillin-resistant Staphylococcus aureus PU 32 harboring i-ermA gene incubated for 16 to 20 hrs by CLSI based broth microdilution method; conditions: time 16-20 hrs
Staphylococcus aureus [17] = assay: Selectivity ratio of MBC for methicillin-resistant Staphylococcus aureus PU 32 harboring i-ermA gene to MIC for methicillin-resistant Staphylococcus aureus PU 32 harboring i-ermA gene
Streptococcus pneumoniae [18] = assay: Selectivity ratio of MBC for Streptococcus pneumoniae 07P390 harboring c-erm gene to MIC for Streptococcus pneumoniae 07P390 harboring c-erm gene
Streptococcus pneumoniae [19] = assay: Bactericidal activity against Streptococcus pneumoniae 07P390 harboring c-erm gene incubated for 16 to 20 hrs by CLSI based broth microdilution method; conditions: time 16-20 hrs
Staphylococcus aureus [20] = assay: Bactericidal activity against methicillin-resistant Staphylococcus aureus PU 20 harboring c-ermA gene incubated for 16 to 20 hrs by CLSI based broth microdilution method; conditions: time 16-20 hrs

Row | Structure (SMILES) | MIC (Haemophilus influenzae [1]) | MIC (Staphylococcus aureus [2]) | MBC (Streptococcus pneumoniae [3]) | MBC (Streptococcus pneumoniae [4]) | MIC (Streptococcus pneumoniae [5]) | Selectivity ratio (Haemophilus influenzae [6]) | MIC (Streptococcus pneumoniae [7]) | MIC (Streptococcus pyogenes [8]) | MIC (Staphylococcus aureus [9]) | MIC (Streptococcus pneumoniae [10]) | Selectivity ratio (Streptococcus pyogenes [11]) | MBC (Haemophilus influenzae [12]) | MBC (Streptococcus pyogenes [13]) | Selectivity ratio (Streptococcus pneumoniae [14]) | Selectivity ratio (Streptococcus pneumoniae [15]) | MBC (Staphylococcus aureus [16]) | Selectivity ratio (Staphylococcus aureus [17]) | Selectivity ratio (Streptococcus pneumoniae [18]) | MBC (Streptococcus pneumoniae [19]) | MBC (Staphylococcus aureus [20])
1 | CC[C@H]1OC(=O)[C@H](C)[C@@H](OC(=O)CCN2CCN(c3cc4c(cc3F)c(=O)c(C(=O)O)cn4C3CC3)CC2)[C@H](C)[C@@H](O[C@@H]2O[C@H](C)C[C@H](N(C)C)[C@H]2O)[C@](C)(OC)C[C@@H](C)/C(=N\OCC#Cc2cncc3ccccc23)[C@H](C)[C@H]2OC(=O)O[C@@]21C | 1 mg/L (≈ 0.846 µM) | > 256 mg/L | 32 mg/L (≈ 27.1 µM) | 4 mg/L (≈ 3.39 µM) | > 32 mg/L | 1 | 4 mg/L (≈ 3.39 µM) | 32 mg/L (≈ 27.1 µM) | > 256 mg/L | 16 mg/L (≈ 13.5 µM) | 2 | 1 mg/L (≈ 0.846 µM) | 64 mg/L (≈ 54.2 µM) | 1 | 2 |  |  |  |  | 
2 | CC[C@H]1OC(=O)[C@H](C)C(=O)[C@H](C)[C@@H](O[C@@H]2O[C@H](C)C[C@H](N(C)C)[C@H]2O)[C@](C)(OC)C[C@@H](C)C(=O)[C@H](C)[C@H]2N(CCCCn3cnc(-c4cccnc4)c3)C(=O)O[C@]12C [TELITHROMYCIN] |  |  | 4 mg/L (≈ 4.93 µM) | 0.125 mg/L (≈ 0.154 µM) | 0.125 mg/L (≈ 0.154 µM) |  | 0.031 mg/L (≈ 0.0382 µM) | 0.031 mg/L (≈ 0.0382 µM) | > 256 mg/L | 0.5 mg/L (≈ 0.616 µM) | 4 |  | 0.125 mg/L (≈ 0.154 µM) | 4 | 8 | 1 mg/L (≈ 1.23 µM) | 4 | 8 | 1 mg/L (≈ 1.23 µM) | 
3 | CC[C@H]1OC(=O)[C@H](C)[C@@H](OC(=O)CCNCCCCNc2cc3c(cc2F)c(=O)c(C(=O)O)cn3C2CC2)[C@H](C)[C@@H](O[C@@H]2O[C@H](C)C[C@H](N(C)C)[C@H]2O)[C@](C)(OC)C[C@@H](C)/C(=N\OCC#Cc2ccc3c(c2)c(=O)c(C(N)=O)cn3CC)[C@H](C)[C@H]2OC(=O)O[C@@]21C | 8 mg/L (≈ 6.3 µM) | 128 mg/L (≈ 101 µM) | 0.25 mg/L (≈ 0.197 µM) | 0.12 mg/L (≈ 0.0945 µM) | 2 mg/L (≈ 1.57 µM) | 1 | 0.12 mg/L (≈ 0.0945 µM) | 1 mg/L (≈ 0.787 µM) | > 256 mg/L | 0.25 mg/L (≈ 0.197 µM) | >8 | 8 mg/L (≈ 6.3 µM) | > 8 mg/L | 1 | 1 | > 256 mg/L |  | 4 | 8 mg/L (≈ 6.3 µM) | > 256 mg/L
4 | CC[C@H]1OC(=O)[C@H](C)[C@@H](OC(=O)NCCCc2ccc3c(c2)c(=O)c(C(=O)O)cn3C2CC2)[C@H](C)[C@@H](O[C@@H]2O[C@H](C)C[C@H](N(C)C)[C@H]2O)[C@](C)(OC)C[C@@H](C)/C(=N\OC)[C@H](C)[C@H]2OC(=O)O[C@@]21C |  |  |  |  | > 32 mg/L | 1 |  |  |  |  | 2 |  |  | 2 | 4 |  | >8 |  |  | 
5 | C#CCO/N=C1\[C@H](C)C[C@@](C)(OC)[C@H](O[C@@H]2O[C@H](C)C[C@H](N(C)C)[C@H]2O)[C@@H](C)[C@H](OC(=O)CCN2CCN(c3cc4c(cc3F)c(=O)c(C(=O)O)cn4C3CC3)CC2)[C@@H](C)C(=O)O[C@H](CC)[C@@]2(C)OC(=O)O[C@@H]2[C@H]1C | 1 mg/L (≈ 0.949 µM) | 64 mg/L (≈ 60.7 µM) | 2 mg/L (≈ 1.9 µM) | 0.5 mg/L (≈ 0.474 µM) | 32 mg/L (≈ 30.4 µM) | 1 | 0.5 mg/L (≈ 0.474 µM) | 4 mg/L (≈ 3.79 µM) | 256 mg/L (≈ 243 µM) | 1 mg/L (≈ 0.949 µM) | 2 | 1 mg/L (≈ 0.949 µM) | 8 mg/L (≈ 7.59 µM) | 1 | 2 | > 256 mg/L | >4 |  | > 32 mg/L | > 256 mg/L
6 | CC[C@H]1OC(=O)[C@H](C)[C@@H](OC(=O)CCN2CCN(c3cc4c(cc3F)c(=O)c(C(=O)O)cn4C3CC3)CC2)[C@H](C)[C@@H](O[C@@H]2O[C@H](C)C[C@H](N(C)C)[C@H]2O)[C@](C)(OC)C[C@@H](C)/C(=N\OCC#Cc2cncc(C(N)=O)c2)[C@H](C)[C@H]2OC(=O)O[C@@]21C | 8 mg/L (≈ 6.81 µM) | 8 mg/L (≈ 6.81 µM) | 1 mg/L (≈ 0.852 µM) | 0.5 mg/L (≈ 0.426 µM) | 4 mg/L (≈ 3.41 µM) | 1 | 0.25 mg/L (≈ 0.213 µM) | 0.5 mg/L (≈ 0.426 µM) | > 256 mg/L | 0.5 mg/L (≈ 0.426 µM) | 2 | 8 mg/L (≈ 6.81 µM) | 1 mg/L (≈ 0.852 µM) | 2 | 2 | > 64 mg/L | >8 | >8 | > 32 mg/L | 
